This note sets out measurements from patent US9957287B2, “Methods and compositions to treat type-1 and type-2 diabetes” (CORNELL UNIVERSITY, priority 2016, dated 2018).

For this assay, the system named is β cells of DKO mice fed a HFD. The experiment in a line: MEK162 treatment in vivo of TLR2/TLR4 DKO mice on HFD, histological analysis. On the set-up: species or system mouse. On the procedure:
For S961 studies, 45-week-old mice under a LFD or HFD were anesthetized and subcutaneously implanted with osmotic pumps (ALZET) filled with insulin receptor antagonist S961 4 or vehicle PBS. Mice were infused with S961 at the dose of 10 nmoles/week for 2 weeks, followed by euthanization and histological analysis of islets. For MEK162 studies, TLR2/TLR4 DKO mice on HFD for 8 weeks were orally gavaged with MEK162 (20 mg/kg body weight, LC laboratories) or vehicle, twice daily for 2 days, followed by euthanization and histological analysis.
For quantification of β cell area, six independent pancreatic tissue sections from 3-4 mice were randomly selected. Total insulin-positive and total pancreas area was measured using the Aperio Imagescope and ImageJ, from which percentage of insulin-positive area was calculated. For quantitation of β cell proliferation, cytoplasmic insulin and nuclear Ki67 double-positive cells were counted as proliferating β cells. Percent of proliferating cells were calculated by dividing the number of Ki67 and insulin-double positive cells by insulin-positive cells of each islet. Islets from 3-4 mice in each group with ˜200-400 β cells in LFD and ˜2,000-7,300 β cells in HFD cohorts were analyzed using the ImageJ software.
Pancreas was fixed in 4% paraformaldehyde, embedded in paraffin, and sectioned by Cornell Histology Core Facility. Ten-micrometer-thick paraffin sections were stained with hematoxylin/eosin. For staining of insulin with immunofluorescence, paraffinembedded sections were rehydrated by sequentially washing in xylene, 100%, 95%, 75% ethanol and water. Then slides were boiled in […] for antigen exposure. After blocking using 5% donkey serum, primary guinea pig anti-rat insulin antibody (Linco, 1:200) were applied and incubated overnight at 4° C., followed with washes and incubation with FITC-conjugated donkey anti-guinea pig IgG (Jackson ImmunoResearch, 1:200). […] Fluorescence Images were captured under a Zeiss LSM710 confocal microscope at Cornell Biotechnology Resource Center Imaging Facility. […]

Setting [1] is: DKO mice on HFD for 8 weeks, MEK162 oral 20 mg/kg twice daily for the last 2 days.

On to `Cn1cnc2c(F)c(Nc3ccc(Br)cc3F)c(C(=O)NOCCO)cc21` [MEK162], for which the ERK activation result (DKO mice fed a HFD, MEK162 oral 20 mg/kg twice daily for 2 days) was “blocked”. Further, under setting [1], the “nuclear entry of Cyclin D2” value is on record as “abolished” and the “β cell proliferation (Ki67-positive β cells)” value is “abolished”.
